From publication PMC4774911, “Biochemical Screening of Five Protein Kinases from Plasmodium falciparum against 14,000 Cell-Active Compounds” (PLoS ONE, 2016) come the findings set out here.

Holding throughout (experiment): biochemical
What all share (set-up): endogenous in cells; host or cells: K562 cell extract; species or system K562 (extract); replicate k of n = 2 (each experiment ID is one independent experiment; two experiment IDs per compound)
Common to all, as to conditions: read-out: KDapp

For assay [1], the target named is CAMK2D (Homo sapiens, UniProt Q13557).
Sequence of CAMK2D (Q13557 whole entry): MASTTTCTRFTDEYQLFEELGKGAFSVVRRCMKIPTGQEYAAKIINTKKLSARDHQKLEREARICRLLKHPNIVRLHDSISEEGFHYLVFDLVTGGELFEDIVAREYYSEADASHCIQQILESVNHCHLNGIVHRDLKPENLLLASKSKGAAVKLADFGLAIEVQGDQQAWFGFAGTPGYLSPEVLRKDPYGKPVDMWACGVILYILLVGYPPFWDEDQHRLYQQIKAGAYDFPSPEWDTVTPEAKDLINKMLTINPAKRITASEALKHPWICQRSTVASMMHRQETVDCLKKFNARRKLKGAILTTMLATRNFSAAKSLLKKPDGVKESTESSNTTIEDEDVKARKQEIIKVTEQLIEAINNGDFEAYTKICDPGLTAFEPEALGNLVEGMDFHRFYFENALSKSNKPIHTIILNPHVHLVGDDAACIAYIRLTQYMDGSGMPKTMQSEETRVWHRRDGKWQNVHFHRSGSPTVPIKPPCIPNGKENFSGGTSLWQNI
The target of assay [2] is T1, TAOK2 (Homo sapiens, UniProt Q9UL54).
T1 sequence (Q9UL54 1-1235): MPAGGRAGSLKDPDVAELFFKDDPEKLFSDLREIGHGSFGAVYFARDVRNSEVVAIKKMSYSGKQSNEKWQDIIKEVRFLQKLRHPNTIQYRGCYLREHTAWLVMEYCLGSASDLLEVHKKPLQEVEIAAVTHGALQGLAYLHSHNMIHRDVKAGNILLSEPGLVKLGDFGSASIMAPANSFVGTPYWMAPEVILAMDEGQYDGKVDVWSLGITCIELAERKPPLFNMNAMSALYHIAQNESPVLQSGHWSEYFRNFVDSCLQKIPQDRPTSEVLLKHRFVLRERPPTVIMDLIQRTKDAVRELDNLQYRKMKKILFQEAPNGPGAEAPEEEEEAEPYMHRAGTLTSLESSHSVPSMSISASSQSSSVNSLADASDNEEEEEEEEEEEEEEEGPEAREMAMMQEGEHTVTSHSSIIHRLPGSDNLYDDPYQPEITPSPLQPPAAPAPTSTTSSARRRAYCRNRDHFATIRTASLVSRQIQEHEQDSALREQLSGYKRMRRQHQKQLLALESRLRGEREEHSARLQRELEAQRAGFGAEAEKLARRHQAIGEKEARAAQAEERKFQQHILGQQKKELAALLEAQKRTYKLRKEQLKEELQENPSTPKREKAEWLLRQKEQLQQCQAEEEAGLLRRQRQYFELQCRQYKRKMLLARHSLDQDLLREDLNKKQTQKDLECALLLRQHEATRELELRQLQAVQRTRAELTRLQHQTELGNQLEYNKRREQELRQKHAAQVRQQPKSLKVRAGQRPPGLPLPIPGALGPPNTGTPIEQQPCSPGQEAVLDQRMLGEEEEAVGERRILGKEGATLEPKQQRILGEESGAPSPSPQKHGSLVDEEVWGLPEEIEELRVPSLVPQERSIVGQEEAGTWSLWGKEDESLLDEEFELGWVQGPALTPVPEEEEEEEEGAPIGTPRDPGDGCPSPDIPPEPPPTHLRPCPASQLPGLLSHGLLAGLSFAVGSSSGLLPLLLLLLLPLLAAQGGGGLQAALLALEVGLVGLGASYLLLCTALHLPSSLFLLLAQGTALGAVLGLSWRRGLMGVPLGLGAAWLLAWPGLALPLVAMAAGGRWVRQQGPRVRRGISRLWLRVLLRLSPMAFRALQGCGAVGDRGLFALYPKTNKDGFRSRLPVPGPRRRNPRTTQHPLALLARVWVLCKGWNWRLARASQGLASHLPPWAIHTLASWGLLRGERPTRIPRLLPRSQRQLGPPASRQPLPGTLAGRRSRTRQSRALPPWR

In assay [3] the target is T2, PHKG2 (Homo sapiens, UniProt P15735).
T2 sequence (P15735 1-406): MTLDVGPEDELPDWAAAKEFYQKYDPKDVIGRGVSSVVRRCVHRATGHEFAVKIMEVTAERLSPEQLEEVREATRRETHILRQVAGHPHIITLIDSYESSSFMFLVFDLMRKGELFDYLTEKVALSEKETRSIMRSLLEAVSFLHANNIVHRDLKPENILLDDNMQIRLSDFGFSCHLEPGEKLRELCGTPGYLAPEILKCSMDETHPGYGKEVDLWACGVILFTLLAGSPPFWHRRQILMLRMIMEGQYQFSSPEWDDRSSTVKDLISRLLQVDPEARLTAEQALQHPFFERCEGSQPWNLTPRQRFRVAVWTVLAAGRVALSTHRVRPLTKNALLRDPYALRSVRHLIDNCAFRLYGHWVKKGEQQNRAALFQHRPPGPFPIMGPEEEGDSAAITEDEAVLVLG

Where “and” joins values, the source holds several entries; their conditions need not be identical. Equal entries are not always repeated.

Regarding `CN1CCN(c2ccc(Nc3ncc(C#N)c(Nc4ccccc4C(N)=O)n3)cc2)CC1.Cl` [TCMDC-134116], the Kd in assay [1] is 323 nM and 163 nM; in assay [2] it was 274 nM; in assay [3], 2250 nM.
